Experiments:
[1] = biological target: T1, HmqD (Burkholderia ambifaria, UniProt Q0B3G0); assay: competitive live-cell activity-based labelling against probe CAA, in-gel fluorescence
T1 construct: gene Bamb_5766; recombinant HmqD overexpressed in live E. coli BL21

[2] = biological target: T1, HmqD; assay: live-cell activity-based labelling with click chemistry and in-gel fluorescence; proteomic identification of the modified site
Text: live-cell activity-based labelling with click chemistry and in-gel fluorescence; proteomic identification of the modified site on HmqD | identified as site of modification by probe CAA only the active site cysteine C114

T1 sequence (Q0B3G0 entry or part of it): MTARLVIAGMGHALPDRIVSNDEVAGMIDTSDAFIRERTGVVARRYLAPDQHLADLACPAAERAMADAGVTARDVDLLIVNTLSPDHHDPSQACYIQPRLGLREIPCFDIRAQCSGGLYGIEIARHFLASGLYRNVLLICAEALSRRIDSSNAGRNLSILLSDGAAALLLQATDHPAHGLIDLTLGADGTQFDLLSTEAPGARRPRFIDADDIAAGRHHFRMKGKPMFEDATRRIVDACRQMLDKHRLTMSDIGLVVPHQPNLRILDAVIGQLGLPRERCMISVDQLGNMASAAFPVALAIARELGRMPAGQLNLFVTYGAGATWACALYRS

Structure (SMILES) | IC50 [1] | live-cell activity-based labelling with click chemistry and in-gel fluorescence; [2]
O=C(CCl)c1ccccc1 [compound 9] | 0.2 µM | 
Nc1cc2c(cc1C(=O)CCl)OCCO2 [compound 7] | 0.2 µM | 
C#CCCC(=O)NCc1ccc(N)c(C(=O)CCl)c1 [CAA] |  | 15 nM
Nc1ccc(I)cc1C(=O)CCl [compound 4] | 0.1 µM | 

— article PMC8153077, “Inhibiting quinolone biosynthesis of Burkholderia” (Chemical Science, 2021)
